This passage reports mass density results from the NIST ThermoML archive (doi:10.1016/j.jct.2005.07.017).

Numbers after ± are expanded uncertainties.

The conditions of the data set: 298.15 K; 101.33 kPa; Liquid.
Broadly, the mass density is mass per unit of volume. In the case of `COC(C)(C)C` [2-methoxy-2-methylpropane], the mass density is given as 735.99 ± 0.86 kg/m3.

With `CC1CCCO1` (centres undefined) [2-methyltetrahydrofuran], the mass density was 848.1 ± 0.73 kg/m3. Next, `CCCCCCCC` [octane]: 698.73 ± 0.86 kg/m3. Take `C1CCOC1` [tetrahydrofuran]: the mass density was 882.09 ± 0.64 kg/m3.
